These results are taken from publication PMC8244912, “An oxytocin/vasopressin-related neuropeptide modulates social foraging behavior in the clonal raider ant” (PLoS Biology, 2021).

“Also recorded” adds a separate entry of the source.

Assay [1] relates to HEK293T cells transfected with an empty vector. The assay can be described thus: Calcium flux, HEK293T cells transfected with empty vector. The note with it: ATP 10 μM (cell health control). The format is cell-based, human. The procedure:
(§1) Human embryonic kidney 293T (HEK293T) cells were cultured in DMEM supplemented with 10% FBS at 37°C in a tissue culture incubator with a humidified atmosphere containing 5% CO2. Cells were plated in 10-cm dishes, and, when they reached 60% to 70% confluency, they were transfected with a pcDNA3.3 vector containing approximately 1 ng of inotocin receptor cDNA or an empty vector as a control using Lipofectamine 2000. Cells were transfected directly into poly-D-lysine–coated 384-well plates and incubated for 48 hours at 37°C. Subsequently, cells were incubated with FLIPR Calcium 4 Assay kit dye for 1 hour in the incubator. The fluorescence (excitation, 488 nm; emission, 530 nm) of the wells was recorded using a Flex Station II 384 (Molecular Devices, San Jose, California, USA), and a dose curve of inotocin (0 to 3 μM) was applied to the wells, in sextuplicate (see below for inotocin peptide synthesis). We calculated the EC50 values using Prism (GraphPad Software version 8) nonlinear regression, 4-parameter logistic curve fit. Dose curves were repeated at least 3 times on independently prepared samples and different days. Results were consistent across replicates, and example dose curves are shown in Fig 1C and S4A Fig. Control experiments are shown in S2–S5 Figs.

The test system of assay [2] is beetle inotocin receptor. The note with it: CHO cells; ref Stafflinger, Hansen et al. 2008; cited from earlier work. The text has this:
(§2) We have edited this last sentence of the abstract to: “Inotocin signaling thereby likely contributes to behavioral individuality an ...

The subject of assay [3] is itcR from Lasius ants. Conditions: CHO cells; ref Koto, Motoyama et al. 2019; cited from earlier work.
From the text: as §2

Assay [4] concerns untransfected HEK293 cell membranes. The note with it: ref Jasper, Harrell et al. 1995; cited from earlier work.
From the text: as §2

The test system of assay [5] is HEK293 cells. Conditions: oxytocin: ref Burger, Fahrenholz et al. 1999, Ma, Hashii et al. 2013, vasopressin: ref Burger; cited from earlier work.
From the text: as §2

Assay [6] has as its target O. biroi inotocin receptor (ObiroiItr_A) (Ooceraea biroi, UniProt A0A8F5LPT9). Description: Calcium flux, HEK293T cells transfected with full-length inotocin receptor (FLIPR Calcium 4). Format: cell-based. Conditions: for calcium response: HEK293T cells expressing full-length itcR; for HillSlope / LogEC50: variable slope.
From the text: RNA was isolated in TRIzol using the RNeasy (Qiagen, Germantown, Maryland, USA) purification kit with DNAse I (Qiagen) on-column digestion as in [52] from a sample that contained adult ants, larvae, and pupae and reverse-transcribed into cDNA. Full-length cDNAs for the O. biroi inotocin receptor were PCR amplified with primers 5′-[…]-3′ and 5′-[…]-3′, using the Easy-A high fidelity polymerase (Agilent, Santa Clara, California, USA) to generate PCR products with 5′-Kozak consensus sequences and 3′-A overhangs. The inotocin receptor cDNAs were cloned into the pcDNA3.3 TOPO TA cloning vector (Invitrogen, Waltham, Massachusetts, USA) following manufacturer’s guidelines.
The full-length inotocin receptor cDNA sequence that was cloned and used for calcium assays is ObiroiItr_A (GenBank MW660838; for protein sequence, see S1 Fig). We also tested splice variant ObiroiItr_H (GenBank MW660845; for protein sequence, see S1 Fig), which lacks TM4-7, for calcium activity.
as §1, with “[…],” for “and a dose curve of inotocin (0 to 3 μM) was applied to the wells,”, “days.” for “days. Results were consistent across replicates, and example dose curves are shown in Fig 1C and S4A Fig. Control experiments are shown in S2–S5 Figs.”
A general note: Calcium flux is commonly read through the fluorescence of an indicator in the cells.

Chain of O. biroi inotocin receptor (ObiroiItr_A) (A0A8F5LPT9 entry or part of it): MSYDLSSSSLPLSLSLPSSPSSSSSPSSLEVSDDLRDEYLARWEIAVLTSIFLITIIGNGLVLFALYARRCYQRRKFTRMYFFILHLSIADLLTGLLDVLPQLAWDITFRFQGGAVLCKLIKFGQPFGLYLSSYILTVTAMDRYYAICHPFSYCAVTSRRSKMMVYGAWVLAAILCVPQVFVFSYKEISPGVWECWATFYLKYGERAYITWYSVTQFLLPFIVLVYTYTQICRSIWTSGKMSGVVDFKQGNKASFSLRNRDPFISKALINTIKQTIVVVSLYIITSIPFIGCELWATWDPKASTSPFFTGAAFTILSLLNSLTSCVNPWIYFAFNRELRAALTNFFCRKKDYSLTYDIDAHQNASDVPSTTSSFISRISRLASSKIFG

For `Nc1ncnc2c1ncn2[C@@H]1O[C@H](COP(=O)(O)OP(=O)(O)OP(=O)(O)O)[C@@H](O)[C@H]1O` [ATP, reference compound], the “calcium response” value in assay [1] was “are healthy and show calcium responses”.

For `CC[C@H](C)[C@@H]1NC(=O)[C@H](Cc2ccc(O)cc2)NC(=O)[C@@H](N)CSSC[C@@H](C(=O)N2CCC[C@H]2C(=O)N[C@@H](CC(C)C)C(=O)NCC(N)=O)NC(=O)[C@H](CC(N)=O)NC(=O)[C@H](CCC(N)=O)NC1=O` [oxytocin], the “receptor response” value was “responds” in assay [2] and “respond” in assay [3]. For the same compound, the “binding of radiolabeled peptide” value in assay [4] is “do not bind”. Besides, the “calcium responses of untransfected and mock transfected HEK293 cells” value in assay [5] was “do not show calcium”. Further, the EC50 in assay [6] was 0.835 µM. Also, the “calcium response” value in assay [6] was “also elicit calcium responses; also recorded: also produced calcium transients”. Moreover, the HillSlope in assay [6] (S4B Fig, oxytocin, SE 0.05165, 95% CI 0.5075 to 0.7181) amounted to 0.6128. The LogEC50 in assay [6] (S4B Fig, oxytocin, X data log of Molar_Oxytocin, SE 0.0661, 95% CI -6.213 to -5.944) is on record as -6.078.

For `N=C(N)NCCC[C@H](NC(=O)[C@@H]1CCCN1C(=O)[C@@H]1CSSC[C@H](N)C(=O)N[C@@H](Cc2ccc(O)cc2)C(=O)N[C@@H](Cc2ccccc2)C(=O)N[C@@H](CCC(N)=O)C(=O)N[C@@H](CC(N)=O)C(=O)N1)C(=O)NCC(N)=O` [AVP], the “binding of radiolabeled peptide” value in assay [4] is recorded as “do not bind”. For the same compound, the “calcium responses of untransfected and mock transfected HEK293 cells” value in assay [5] was “do not show calcium”. Moreover, the EC50 in assay [6] came out at 12.6 µM. Moreover, the “calcium response” value in assay [6] (listed as vasopressin) was “also elicit calcium responses; also recorded: also produced calcium transients”. The LogEC50 in assay [6] (S4C Fig, AVP, SE 0.09024, 95% CI -5.083 to -4.715) is reported as -4.899. Further, the HillSlope in assay [6] (S4C Fig, AVP, SE 0.1917, 95% CI 0.6094 to 1.391) worked out at 1.

With “NRPCGLTCI [scrambled control peptide, scrambled version of inotocin (…) as negative control with identical amino acid composition]”, the “calcium response” value in assay [6] is “No Ca^2+ influx is detected”.

What is called EC50 is the concentration at which the effect is half-maximal.
